System: sugarcane
Experiment: Sugarcane flowering inhibition field trials, floral induction rated on UFSCar scale
Format: in vivo
Protocol: In order to explore the activity of florpyrauxifen as flowering inhibitor in sugarcane, field studies were carried out. Florpyrauxifen-benzyl was tested at rates from 2 to 20 grams active ingredient per hectare (g ai/ha) and compared to Ethrel® 720 (Bayer), the standard treatment. The flowering inhibition effect was assessed by checking the floral induction in sugarcane through the percentage scale recommended by UFSCar (Federal University of Sao Carlos, Sao Paulo, Brazil).
Four trials were carried out in sugarcane where florpyrauxifen-benzyl (Rinskor®), applied at a rate of 2 to 20 g ai/ha, was compared to ethephon (Ethrel® 720) applied at a rate of 475 g ai/ha. Control plots of untreated sugarcane were also evaluated. Rinskor® and Ethrel® 720 were diluted in water and a single application for each study (backpack sprayer) was performed delivering 50 L of spray solution per ha at the reproductive stage of sugarcane and at a maximum 150 days before harvest. The activity of florpyrauxifen-benzyl as a flowering inhibitor was measured via assessments (Scale of flowering inhibition—see chart 1) performed at 0, 14, 30, 45, 60, 75, 90, 120, 150 days after application, or up to harvest time. The assessments were measured in sugarcane stems, rating the flowering induction according to the UFSCar scale shown below. Significance of treatment effect was evaluated with F-approximate test (α=0.1) and least square means from different treatments were compared with Tukey's test.

COc1c(Cl)ccc(-c2nc(C(=O)OCc3ccccc3)c(Cl)c(N)c2F)c1F [Rinskor, florpyrauxifen-benzyl]
47.5%: Frequency 4/2 (80%) (Table 2, 90 DAA, 2 g ai/ha)
30.0%: Frequency 3/1 (30%) (Table 2, 90 DAA, 20 g ai/ha)
67.5%: Frequency 4/1 (50%) (Table 2, 90 DAA, 5 g ai/ha)
7.5%: Frequency 2/1 (15%) (Table 2, 75 DAA, 2 g ai/ha) | Frequency 2/1 (15%) (Table 2, 75 DAA, 15 g ai/ha) | Frequency 4/2 (80%) (Table 2, 90 DAA, 7 g ai/ha) | Frequency 2/1 (15%) (Table 2, 90 DAA, 10 g ai/ha)
97.5%: Frequency 1/1 (0%) (Table 2, 75 DAA, 10 g ai/ha)
0.0%: Frequency 3/1 (30%) (Table 1, 120 DAA, 20 g ai/ha) | Frequency 4/1 (50%) (Table 1, 120 DAA, 20 g ai/ha) | Frequency 4/2 (80%) (Table 1, 120 DAA, 20 g ai/ha) | Frequency 4/3 (90%) (Table 1, 120 DAA, 20 g ai/ha) | Frequency 4/4 (100%) (Table 1, 120 DAA, 20 g ai/ha) | Frequency 3/1 (30%) (Table 2, 75 DAA, 2 g ai/ha) | Frequency 4/1 (50%) (Table 2, 75 DAA, 2 g ai/ha) | Frequency 4/2 (80%) (Table 2, 75 DAA, 2 g ai/ha) | Frequency 4/3 (90%) (Table 2, 75 DAA, 2 g ai/ha) | Frequency 4/4 (100%) (Table 2, 75 DAA, 2 g ai/ha) | Frequency 3/1 (30%) (Table 2, 75 DAA, 5 g ai/ha) | Frequency 4/1 (50%) (Table 2, 75 DAA, 5 g ai/ha) | Frequency 4/2 (80%) (Table 2, 75 DAA, 5 g ai/ha) | Frequency 4/3 (90%) (Table 2, 75 DAA, 5 g ai/ha) | Frequency 4/4 (100%) (Table 2, 75 DAA, 5 g ai/ha) | Frequency 3/1 (30%) (Table 2, 75 DAA, 7 g ai/ha) | Frequency 4/1 (50%) (Table 2, 75 DAA, 7 g ai/ha) | Frequency 4/2 (80%) (Table 2, 75 DAA, 7 g ai/ha) | Frequency 4/3 (90%) (Table 2, 75 DAA, 7 g ai/ha) | Frequency 4/4 (100%) (Table 2, 75 DAA, 7 g ai/ha) | Frequency 3/1 (30%) (Table 2, 75 DAA, 10 g ai/ha) | Frequency 4/1 (50%) (Table 2, 75 DAA, 10 g ai/ha) | Frequency 4/2 (80%) (Table 2, 75 DAA, 10 g ai/ha) | Frequency 4/3 (90%) (Table 2, 75 DAA, 10 g ai/ha) | Frequency 4/4 (100%) (Table 2, 75 DAA, 10 g ai/ha) | Frequency 3/1 (30%) (Table 2, 75 DAA, 15 g ai/ha) | Frequency 4/1 (50%) (Table 2, 75 DAA, 15 g ai/ha) | Frequency 4/2 (80%) (Table 2, 75 DAA, 15 g ai/ha) | Frequency 4/3 (90%) (Table 2, 75 DAA, 15 g ai/ha) | Frequency 4/4 (100%) (Table 2, 75 DAA, 15 g ai/ha) | Frequency 3/1 (30%) (Table 2, 75 DAA, 20 g ai/ha) | Frequency 4/1 (50%) (Table 2, 75 DAA, 20 g ai/ha) | Frequency 4/2 (80%) (Table 2, 75 DAA, 20 g ai/ha) | Frequency 4/3 (90%) (Table 2, 75 DAA, 20 g ai/ha) | Frequency 4/4 (100%) (Table 2, 75 DAA, 20 g ai/ha) | Frequency 1/1 (0%) (Table 2, 90 DAA, 2 g ai/ha) | Frequency 2/1 (15%) (Table 2, 90 DAA, 2 g ai/ha) | Frequency 4/3 (90%) (Table 2, 90 DAA, 2 g ai/ha) | Frequency 4/4 (100%) (Table 2, 90 DAA, 2 g ai/ha) | Frequency 1/1 (0%) (Table 2, 90 DAA, 5 g ai/ha) | Frequency 2/1 (15%) (Table 2, 90 DAA, 5 g ai/ha) | Frequency 4/2 (80%) (Table 2, 90 DAA, 5 g ai/ha) | Frequency 4/3 (90%) (Table 2, 90 DAA, 5 g ai/ha) | Frequency 4/4 (100%) (Table 2, 90 DAA, 5 g ai/ha) | Frequency 1/1 (0%) (Table 2, 90 DAA, 7 g ai/ha) | Frequency 2/1 (15%) (Table 2, 90 DAA, 7 g ai/ha) | Frequency 4/3 (90%) (Table 2, 90 DAA, 7 g ai/ha) | Frequency 4/4 (100%) (Table 2, 90 DAA, 7 g ai/ha) | Frequency 1/1 (0%) (Table 2, 90 DAA, 10 g ai/ha) | Frequency 4/2 (80%) (Table 2, 90 DAA, 10 g ai/ha) | Frequency 4/3 (90%) (Table 2, 90 DAA, 10 g ai/ha) | Frequency 4/4 (100%) (Table 2, 90 DAA, 10 g ai/ha) | Frequency 1/1 (0%) (Table 2, 90 DAA, 15 g ai/ha) | Frequency 4/2 (80%) (Table 2, 90 DAA, 15 g ai/ha) | Frequency 4/3 (90%) (Table 2, 90 DAA, 15 g ai/ha) | Frequency 4/4 (100%) (Table 2, 90 DAA, 15 g ai/ha) | Frequency 1/1 (0%) (Table 2, 90 DAA, 20 g ai/ha) | Frequency 4/3 (90%) (Table 2, 90 DAA, 20 g ai/ha) | Frequency 4/4 (100%) (Table 2, 90 DAA, 20 g ai/ha) | Frequency 1/1 (0%) (Table 2, 120 DAA, 2 g ai/ha) | Frequency 2/1 (15%) (Table 2, 120 DAA, 2 g ai/ha) | Frequency 3/1 (30%) (Table 2, 120 DAA, 2 g ai/ha) | Frequency 4/1 (50%) (Table 2, 120 DAA, 2 g ai/ha)
25.0%: Frequency 3/1 (30%) (Table 2, 90 DAA, 15 g ai/ha)
37.4%: % Referring to Scale (Table 2, 90 DAA, 10 g ai/ha)
55.0%: Frequency 4/1 (50%) (Table 2, 90 DAA, 7 g ai/ha)
46.0%: % Referring to Scale (Table 2, 90 DAA, 20 g ai/ha)
12.8%: % Referring to Scale (Table 1, 120 DAA, 20 g ai/ha)
96.5%: % Referring to Scale (Table 2, 120 DAA, 5 g ai/ha)
2.5%: Frequency 2/1 (15%) (Table 2, 75 DAA, 10 g ai/ha)
12.5%: Frequency 4/2 (80%) (Table 2, 90 DAA, 20 g ai/ha)
43.5%: % Referring to Scale (Table 2, 90 DAA, 5 g ai/ha)
1.1%: % Referring to Scale (Table 2, 75 DAA, 2 g ai/ha) | % Referring to Scale (Table 2, 75 DAA, 15 g ai/ha)
15.0%: Frequency 1/1 (0%) (Table 1, 120 DAA, 20 g ai/ha) | Frequency 2/1 (15%) (Table 2, 90 DAA, 15 g ai/ha)
39.8%: % Referring to Scale (Table 2, 90 DAA, 15 g ai/ha)
85.0%: Frequency 2/1 (15%) (Table 1, 120 DAA, 20 g ai/ha)
60.0%: Frequency 4/1 (50%) (Table 2, 90 DAA, 15 g ai/ha)
5.0%: Frequency 2/1 (15%) (Table 2, 75 DAA, 5 g ai/ha) | Frequency 2/1 (15%) (Table 2, 75 DAA, 7 g ai/ha) | Frequency 2/1 (15%) (Table 2, 75 DAA, 20 g ai/ha) | Frequency 2/1 (15%) (Table 2, 90 DAA, 20 g ai/ha) | Frequency 4/2 (80%) (Table 2, 120 DAA, 2 g ai/ha)
62.5%: Frequency 4/4 (100%) (Table 2, 120 DAA, 2 g ai/ha)
32.5%: Frequency 4/1 (50%) (Table 2, 90 DAA, 2 g ai/ha) | Frequency 3/1 (30%) (Table 2, 90 DAA, 5 g ai/ha) | Frequency 4/3 (90%) (Table 2, 120 DAA, 2 g ai/ha)
20.0%: Frequency 3/1 (30%) (Table 2, 90 DAA, 2 g ai/ha)
44.8%: % Referring to Scale (Table 2, 90 DAA, 7 g ai/ha)
37.5%: Frequency 3/1 (30%) (Table 2, 90 DAA, 7 g ai/ha)
42.5%: Frequency 4/1 (50%) (Table 2, 90 DAA, 10 g ai/ha)
0.4%: % Referring to Scale (Table 2, 75 DAA, 10 g ai/ha)
95.0%: Frequency 1/1 (0%) (Table 2, 75 DAA, 5 g ai/ha) | Frequency 1/1 (0%) (Table 2, 75 DAA, 7 g ai/ha) | Frequency 1/1 (0%) (Table 2, 75 DAA, 20 g ai/ha)
60.3%: % Referring to Scale (Table 2, 90 DAA, 2 g ai/ha)
0.8%: % Referring to Scale (Table 2, 75 DAA, 5 g ai/ha) | % Referring to Scale (Table 2, 75 DAA, 7 g ai/ha) | % Referring to Scale (Table 2, 75 DAA, 20 g ai/ha)
52.5%: Frequency 4/1 (50%) (Table 2, 90 DAA, 20 g ai/ha)
95.8%: % Referring to Scale (Table 2, 120 DAA, 2 g ai/ha)
50.0%: Frequency 3/1 (30%) (Table 2, 90 DAA, 10 g ai/ha)
92.5%: Frequency 1/1 (0%) (Table 2, 75 DAA, 2 g ai/ha) | Frequency 1/1 (0%) (Table 2, 75 DAA, 15 g ai/ha)
